The assay addresses GLP-1R (Homo sapiens, UniProt P43220). Briefly: GLP-1R Activation - cAMP Assay. It is filed as cell-based. Particulars: cAMP increase in CHO cells stably expressing GLP-1R; each compound run on one of the two cAMP assays (Assay 1 or Assay 2, not specified). In a few lines:
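CHO cells stably expressing GLP-1R, plated at 1,000 cells/well overnight, then equilibrated 1 h in HBSS with 20 mM Hepes and 0.1% BSA. Agonist added as 10-point dose response for 30 min at 37 °C. cAMP measured by HTRF (Cisbio Gs Dynamic kit); EC50 from sigmoidal fit.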
Chain of GLP-1R (P43220 24-463): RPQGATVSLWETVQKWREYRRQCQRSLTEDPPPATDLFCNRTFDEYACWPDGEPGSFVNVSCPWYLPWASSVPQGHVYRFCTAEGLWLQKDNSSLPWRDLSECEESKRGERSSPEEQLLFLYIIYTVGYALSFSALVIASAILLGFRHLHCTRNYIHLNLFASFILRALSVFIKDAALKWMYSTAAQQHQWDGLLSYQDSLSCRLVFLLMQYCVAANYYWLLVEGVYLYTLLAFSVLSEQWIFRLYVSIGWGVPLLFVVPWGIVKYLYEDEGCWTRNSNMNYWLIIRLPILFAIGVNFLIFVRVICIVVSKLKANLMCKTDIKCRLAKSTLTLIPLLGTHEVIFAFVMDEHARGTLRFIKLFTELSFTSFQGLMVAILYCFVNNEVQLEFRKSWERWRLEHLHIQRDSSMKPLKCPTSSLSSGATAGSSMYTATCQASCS
In the case of `CC1(C)COC[C@H]1n1c(Cc2cc(F)c(-c3cccc(OCc4cnc(-n5ccnn5)cc4Cl)n3)cc2F)nc2c(Cl)cc(C(=O)O)cc21` [Example 528, (S)-4-chloro-2-(4-(6-((4-chloro-6-(1H-1,2,3-triazol-1-yl)pyridin-3-yl)methoxy)pyridin-2-yl)-2,5-difluorobenzyl)-1-(4,4-dimethyltetrahydrofuran-3-yl)-1H-benzo[d]imidazole-6-carboxylic acid], a half-maximal response (EC50) required 0.047 nM. For `COC(=O)N1Cc2ccc(COc3cccc(-c4cc(F)c(Cc5nc6ccc(C(=O)O)cc6n5[C@@H]5COCC5(C)C)cc4F)n3)cc2C1` [Example 529, (S)-2-(2,5-difluoro-4-(6-((2-(methoxycarbonyl)isoindolin-5-yl)methoxy)pyridin-2-yl)benzyl)-1-(4,4-dimethyltetrahydrofuran-3-yl)-1H-benzo[d]imidazole-6-carboxylic acid] the value was 0.598 nM.

For `O=C(O)c1ccc2nc(Cc3cc(F)c(-c4cccc(OCc5ccc6ncsc6c5)n4)cc3F)n(C[C@@H]3CCO3)c2c1` [Example 530, (S)-2-(4-(6-(benzo[d]thiazol-6-ylmethoxy)pyridin-2-yl)-2,5-difluorobenzyl)-1-(oxetan-2-ylmethyl)-1H-benzo[d]imidazole-6-carboxylic acid], a half-maximal effect (EC50) was put at 0.392 nM. In the case of `Cn1c(=O)sc2cc(COc3cccc(-c4cc(F)c(Cc5nc6ccc(C(=O)O)cc6n5C[C@@H]5CCO5)cc4F)n3)ccc21` [Example 531, (S)-2-(2,5-difluoro-4-(6-((3-methyl-2-oxo-2,3-dihydrobenzo[d]thiazol-6-yl)methoxy)pyridin-2-yl)benzyl)-1-(oxetan-2-ylmethyl)-1H-benzo[d]imidazole-6-carboxylic acid], the EC50 (commonly the concentration that produces a half-maximal response) amounted to 0.396 nM. The EC50 values of the last two compounds are within 1.5-fold of each other. Consider `COC(=O)c1ccc2nc(Cc3cc(F)c(-c4cccc(OCc5ccc(Cl)cc5F)n4)cc3F)n([C@@H]3COCC3(C)C)c2c1` [Example 532, (S)-methyl 2-(4-(6-((4-chloro-2-fluorobenzyl)oxy)pyridin-2-yl)-2,5-difluorobenzyl)-1-(4,4-dimethyltetrahydrofuran-3-yl)-1H-benzo[d]imidazole-6-carboxylate], for which the EC50 worked out at 3680 nM. In turn, `CO[C@H]1COC[C@H]1n1c(Cc2cc(F)c(-c3cccc(OCc4ccc(Cl)cc4F)n3)cc2F)nc2ccc(C(=O)O)cc21` [Example 533, 2-(4-(6-((4-chloro-2-fluorobenzyl)oxy)pyridin-2-yl)-2,5-difluorobenzyl)-1-((3R,4R)-4-methoxytetrahydrofuran-3-yl)-1H-benzo[d]imidazole-6-carboxylic acid] registered an EC50 of 0.5 nM. For `CO[C@H]1COC[C@H]1n1c(Cc2cc(F)c(-c3ccc(F)c(OCc4ccc(Cl)cc4F)n3)cc2F)nc2ccc(C(=O)O)cc21` [Example 534, 2-(4-(6-((4-chloro-2-fluorobenzyl)oxy)-5-fluoropyridin-2-yl)-2,5-difluorobenzyl)-1-((3R,4R)-4-methoxytetrahydrofuran-3-yl)-1H-benzo[d]imidazole-6-carboxylic acid], a half-maximal response (EC50) required 0.353 nM.

As to `Cn1cc(-c2ccc(COc3cccc(-c4cc(F)c(Cc5nc6ccc(C(=O)O)cc6n5[C@@H]5COCC5(C)C)cc4F)n3)c(F)c2)cn1` [Example 535, (S)-2-(2,5-difluoro-4-(6-((2-fluoro-4-(1-methyl-1H-pyrazol-4-yl)benzyl)oxy)pyridin-2-yl)benzyl)-1-(4,4-dimethyltetrahydrofuran-3-yl)-1H-benzo[d]imidazole-6-carboxylic acid], the half-maximal effective concentration (EC50) came to 0.099 nM. For the compound `CC1(C)COC[C@H]1n1c(Cc2cc(F)c(-c3ccc(F)c(OCc4ccc(C(F)(F)F)cc4)n3)cc2F)nc2ccc(C(=O)O)cc21` [Example 536, (S)-2-(2,5-difluoro-4-(5-fluoro-6-((4-(trifluoromethyl)benzyl)oxy)pyridin-2-yl)benzyl)-1-(4,4-dimethyltetrahydrofuran-3-yl)-1H-benzo[d]imidazole-6-carboxylic acid], the 50% effective concentration (EC50) is 0.083 nM. Then `CC1(C)COC[C@H]1n1c(Cc2cc(F)c(-c3ccnc(OCc4ccc(C(F)(F)F)cc4)n3)cc2F)nc2ccc(C(=O)O)cc21` [Example 537, (S)-2-(2,5-difluoro-4-(2-((4-(trifluoromethyl)benzyl)oxy)pyrimidin-4-yl)benzyl)-1-(4,4-dimethyltetrahydrofuran-3-yl)-1H-benzo[d]imidazole-6-carboxylic acid], with 0.121 nM. `COC[C@H]1COC[C@H]1n1c(Cc2cc(F)c(-c3ccc(F)c(OCc4ccc(C(F)(F)F)cc4)n3)cc2F)nc2ccc(C(=O)O)cc21` [Example 538, 2-(2,5-difluoro-4-(5-fluoro-6-((4-(trifluoromethyl)benzyl)oxy)pyridin-2-yl)benzyl)-1-((3S,4S)-4-(methoxymethyl)tetrahydrofuran-3-yl)-1H-benzo[d]imidazole-6-carboxylic acid] registered an EC50 of 0.109 nM. This EC50 and that of the compound before are within 1.5-fold of each other. Then `N#Cc1ccc(COc2cccc(-c3cc(F)c(Cc4nc5ccc(C(=O)O)cc5n4[C@@H]4COC[C@@H]4OCC(F)F)cc3F)n2)c(F)c1` [Example 540, 2-(4-(6-((4-cyano-2-fluorobenzyl)oxy)pyridin-2-yl)-2,5-difluorobenzyl)-1-((3R,4R)-4-(2,2-difluoroethoxy)tetrahydrofuran-3-yl)-1H-benzo[d]imidazole-6-carboxylic acid], with 0.052 nM; and `N#Cc1ccc(COc2cccc(-c3cc(F)c(Cc4nc5ccc(C(=O)O)cc5n4[C@H]4COC[C@H]4OCC(F)F)cc3F)n2)c(F)c1` [Example 541, 2-(4-(6-((4-cyano-2-fluorobenzyl)oxy)pyridin-2-yl)-2,5-difluorobenzyl)-1-((3S,4S)-4-(2,2-difluoroethoxy)tetrahydrofuran-3-yl)-1H-benzo[d]imidazole-6-carboxylic acid], with 0.434 nM; and `COC[C@H]1COC[C@H]1n1c(Cc2cc(F)c(-c3cccc(OCc4ccc(Cl)cc4F)n3)cc2F)nc2ccc(C(=O)O)cc21` [Example 542, 2-(4-(6-((4-chloro-2-fluorobenzyl)oxy)pyridin-2-yl)-2,5-difluorobenzyl)-1-((3S,4S)-4-(methoxymethyl)tetrahydrofuran-3-yl)-1H-benzo[d]imidazole-6-carboxylic acid], with 0.033 nM.

As for `COC[C@H]1COC[C@H]1n1c(Cc2cc(F)c(-c3ccc(F)c(OCc4ccc(Cl)cc4F)n3)cc2F)nc2ccc(C(=O)O)cc21` [Example 543, 2-(4-(6-((4-chloro-2-fluorobenzyl)oxy)-5-fluoropyridin-2-yl)-2,5-difluorobenzyl)-1-((3S,4S)-4-(methoxymethyl)tetrahydrofuran-3-yl)-1H-benzo[d]imidazole-6-carboxylic acid], the concentration for a half-maximal effect (EC50) turned out to be 0.038 nM. `COC[C@H]1COC[C@H]1n1c(Cc2cc(F)c(-c3cccc(OCc4ccc(Cl)cc4)n3)cc2F)nc2ccc(C(=O)O)cc21` [Example 544, 2-(4-(6-((4-chlorobenzyl)oxy)pyridin-2-yl)-2,5-difluorobenzyl)-1-((3S,4S)-4-(methoxymethyl)tetrahydrofuran-3-yl)-1H-benzo[d]imidazole-6-carboxylic acid] displayed an EC50 of 0.048 nM.

The compound `COC[C@H]1COC[C@H]1n1c(Cc2cc(F)c(-c3ccc(F)c(OCc4ccc(Cl)cc4)n3)cc2F)nc2ccc(C(=O)O)cc21` [Example 545, 2-(4-(6-((4-chlorobenzyl)oxy)-5-fluoropyridin-2-yl)-2,5-difluorobenzyl)-1-((3S,4S)-4-(methoxymethyl)tetrahydrofuran-3-yl)-1H-benzo[d]imidazole-6-carboxylic acid] displayed a concentration for a half-maximal effect (EC50) of 0.044 nM. The EC50 values of the last two compounds are within 1.5-fold of each other. Take `Cn1cc(-c2ccc(COc3cccc(-c4cc(F)c(Cc5nc6ccc(C(=O)O)cc6n5[C@@H]5COCC5(C)C)cc4F)n3)cn2)nn1` [Example 550, (S)-2-(2,5-difluoro-4-(6-((6-(1-methyl-1H-1,2,3-triazol-4-yl)pyridin-3-yl)methoxy)pyridin-2-yl)benzyl)-1-(4,4-dimethyltetrahydrofuran-3-yl)-1H-benzo[d]imidazole-6-carboxylic acid]: the response was half-maximal at 0.066 nM (EC50). Then `CC1(C)COC[C@H]1n1c(Cc2cc(F)c(-c3cccc(OCc4ccc(-c5cnn(C(F)F)c5)cc4)n3)cc2F)nc2ccc(C(=O)O)cc21` [Example 551, (S)-2-(4-(6-((4-(1-(difluoromethyl)-1H-pyrazol-4-yl)benzyl)oxy)pyridin-2-yl)-2,5-difluorobenzyl)-1-(4,4-dimethyltetrahydrofuran-3-yl)-1H-benzo[d]imidazole-6-carboxylic acid], with 0.11 nM; and `CC1(C)COC[C@H]1n1c(Cc2cc(F)c(-c3cccc(OCc4cnc(-c5cnn(C(F)F)c5)cc4Cl)n3)cc2F)nc2ccc(C(=O)O)cc21` [Example 552, (S)-2-(4-(6-((4-chloro-6-(1-(difluoromethyl)-1H-pyrazol-4-yl)pyridin-3-yl)methoxy)pyridin-2-yl)-2,5-difluorobenzyl)-1-(4,4-dimethyltetrahydrofuran-3-yl)-1H-benzo[d]imidazole-6-carboxylic acid], with 0.99 nM.

`Cn1ncc(-c2ccc(COc3cccc(-c4cc(F)c(Cc5nc6ccc(C(=O)O)cc6n5[C@@H]5COCC5(C)C)cc4F)n3)c(F)c2)n1` [Example 553, (S)-2-(2,5-difluoro-4-(6-((2-fluoro-4-(2-methyl-2H-1,2,3-triazol-4-yl)benzyl)oxy)pyridin-2-yl)benzyl)-1-(4,4-dimethyltetrahydrofuran-3-yl)-1H-benzo[d]imidazole-6-carboxylic acid] came in with a 50% effective concentration (EC50) of 0.132 nM. This EC50 is about 7.5-fold lower than that of the compound before. For `Cn1nncc1-c1ccc(COc2cccc(-c3cc(F)c(Cc4nc5ccc(C(=O)O)cc5n4[C@@H]4COCC4(C)C)cc3F)n2)c(F)c1` [Example 554, (S)-2-(2,5-difluoro-4-(6-((2-fluoro-4-(1-methyl-1H-1,2,3-triazol-5-yl)benzyl)oxy)pyridin-2-yl)benzyl)-1-(4,4-dimethyltetrahydrofuran-3-yl)-1H-benzo[d]imidazole-6-carboxylic acid] the value was 0.026 nM.

The values are drawn from patent US12570642B2, “GLP-IR modulating compounds” (Gilead Sciences, Inc., priority 2021, dated 2026).
